{"source": "patent US5294611A", "about": "“Angiotensin II receptor blocking 2,3,6 substituted quinazolinones” (American Cyanamid Company, priority 1993, dated 1994)", "tested_on": "Angiotensin II (AII) vasopressor response", "test": "AII Challenge: antagonism of angiotensin II vasopressor response in conscious spontaneously hypertensive rats", "assay_type": "in vivo, rat (male okamoto-Aoki SHR)", "conditions": "for inhibition in vivo at 10 mg/kg / inhibition in vivo at 5 mg/kg: Rattus norvegicus; for inhibition in vivo at 10 mg/kg: iv; for inhibition in vivo at 10 mg/kg / inhibition in vivo at 5 mg/kg / Average Change: SHR n=2; for inhibition in vivo at 5 mg/kg: po, read-out: Inhibition; for Change: single SHR", "method_in_brief": "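Read-out is the systolic pressure increase (mmHg) to i.v. angiotensin II, 0.05 and 0.1 ug/kg, compared pre- and post-dose in restrained, conscious spontaneously hypertensive male rats. Compounds administered orally, i.p. or i.v.; arterial cannula inserted under local anaesthesia.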", "key": {"[1]": {"conditions": "5 mg/kg P.O., AII 0.05 mcg/kg IV, 90 min post dose"}, "[2]": {"conditions": "10 mg/kg I.V., AII 0.05 mcg/kg IV, 30 min post dose"}, "[3]": {"conditions": "10 mg/kg I.V., AII 0.05 mcg/kg IV, 90 min post dose"}, "[4]": {"conditions": "10 mg/kg I.V., AII 0.1 mcg/kg IV, 180 min post dose"}, "[5]": {"conditions": "10 mg/kg I.V., AII dose not given, 120 min post dose"}}, "note": "Where two headings read alike, the source gives them in different places."}
{"smiles": "CCCCc1nc2ccc([C@@H]3[C@H]4C(=O)CCC[C@H]4ON3C)cc2c(=O)n1Cc1ccc(-c2ccccc2-c2nnn[nH]2)cc1", "note": "(relative stereo) [Example 49]", "values": [{"measurement": "inhibition in vivo at 10 mg/kg", "setting": "0.5 h, 10 mg/kg I.V., AII 0.05 mcg/kg IV, 30 min post dose", "value": 100, "unit": "%"}, {"measurement": "inhibition in vivo at 10 mg/kg", "setting": "0.5 h, 10 mg/kg I.V., AII 0.1 mcg/kg IV, 30 min post dose", "value": 88, "unit": "%"}, {"measurement": "inhibition in vivo at 10 mg/kg", "setting": "1 h, 10 mg/kg I.V., AII 0.01 mcg/kg IV (so in the source), 60 min post dose", "value": 86, "unit": "%"}, {"measurement": "inhibition in vivo at 10 mg/kg", "setting": "1 h, 10 mg/kg I.V., AII 0.05 mcg/kg IV, 60 min post dose", "value": 97, "unit": "%"}, {"measurement": "inhibition in vivo at 10 mg/kg", "setting": "2 h, 10 mg/kg I.V., AII 0.05 mcg/kg IV, 120 min post dose", "value": 86, "unit": "%"}, {"measurement": "inhibition in vivo at 10 mg/kg", "setting": "2 h, 10 mg/kg I.V., AII dose not given, 120 min post dose", "value": 81, "unit": "%"}, {"measurement": "inhibition in vivo at 10 mg/kg", "setting": "3 h, 10 mg/kg I.V., AII 0.05 mcg/kg IV, 180 min post dose", "value": 67, "unit": "%"}, {"measurement": "inhibition in vivo at 10 mg/kg", "setting": "3 h, 10 mg/kg I.V., AII 0.1 mcg/kg IV, 180 min post dose", "value": 63, "unit": "%"}, {"measurement": "inhibition in vivo at 10 mg/kg", "setting": "[…], 10 mg/kg I.V., AII 0.05 mcg/kg IV, 90 min post dose", "value": 87, "unit": "%"}, {"measurement": "inhibition in vivo at 10 mg/kg", "setting": "[…], 10 mg/kg I.V., AII 0.1 mcg/kg IV, 90 min post dose", "value": 86, "unit": "%"}, {"measurement": "inhibition in vivo at 5 mg/kg", "setting": "0.5 h, 5 mg/kg P.O., AII 0.05 mcg/kg IV, 30 min post dose", "value": 37, "unit": "%"}, {"measurement": "inhibition in vivo at 5 mg/kg", "setting": "0.5 h, 5 mg/kg P.O., AII 0.1 mcg/kg IV, 30 min post dose", "value": 38, "unit": "%"}, {"measurement": "inhibition in vivo at 5 mg/kg", "setting": "1 h, 5 mg/kg P.O., AII 0.05 mcg/kg IV, 60 min post dose", "value": 59, "unit": "%"}, {"measurement": "inhibition in vivo at 5 mg/kg", "setting": "1 h, 5 mg/kg P.O., AII 0.1 mcg/kg IV, 60 min post dose", "value": 29, "unit": "%"}, {"measurement": "inhibition in vivo at 5 mg/kg", "setting": "2 h, 5 mg/kg P.O., AII 0.05 mcg/kg IV, 120 min post dose", "value": 41, "unit": "%"}, {"measurement": "inhibition in vivo at 5 mg/kg", "setting": "2 h, 5 mg/kg P.O., AII 0.1 mcg/kg IV, 120 min post dose", "value": 55, "unit": "%"}, {"measurement": "inhibition in vivo at 5 mg/kg", "setting": "3 h, 5 mg/kg P.O., AII 0.05 mcg/kg IV, 180 min post dose", "value": 63, "unit": "%"}, {"measurement": "inhibition in vivo at 5 mg/kg", "setting": "3 h, 5 mg/kg P.O., AII 0.1 mcg/kg IV, 180 min post dose", "value": 35, "unit": "%"}, {"measurement": "inhibition in vivo at 5 mg/kg", "setting": "4 h, 5 mg/kg P.O., AII 0.05 mcg/kg IV, 240 min post dose", "value": 34, "unit": "%"}, {"measurement": "inhibition in vivo at 5 mg/kg", "setting": "4 h, 5 mg/kg P.O., AII 0.1 mcg/kg IV, 240 min post dose", "value": 36, "unit": "%"}, {"measurement": "inhibition in vivo at 5 mg/kg", "setting": "[…], 5 mg/kg P.O., AII 0.05 mcg/kg IV, 90 min post dose", "value": 56, "unit": "%"}, {"measurement": "inhibition in vivo at 5 mg/kg", "setting": "[…], 5 mg/kg P.O., AII 0.1 mcg/kg IV, 90 min post dose", "value": 59, "unit": "%"}, {"measurement": "Average Change", "setting": "5 mg/kg P.O., AII 0.05 mcg/kg IV, 30 min post dose", "value": 21.5, "unit": "mmHg"}, {"measurement": "Average Change", "setting": "5 mg/kg P.O., AII 0.05 mcg/kg IV, 60 min post dose", "value": 14, "unit": "mmHg"}, {"measurement": "Average Change", "setting": "[1]", "value": 15, "unit": "mmHg"}, {"measurement": "Average Change", "setting": "5 mg/kg P.O., AII 0.05 mcg/kg IV, 120 min post dose", "value": 20, "unit": "mmHg"}, {"measurement": "Average Change", "setting": "5 mg/kg P.O., AII 0.05 mcg/kg IV, 180 min post dose", "value": 12.5, "unit": "mmHg"}, {"measurement": "Average Change", "setting": "5 mg/kg P.O., AII 0.05 mcg/kg IV, 240 min post dose", "value": 22.5, "unit": "mmHg"}, {"measurement": "Average Change", "setting": "5 mg/kg P.O., AII 0.1 mcg/kg IV, 30 min post dose", "value": 26.5, "unit": "mmHg"}, {"measurement": "Average Change", "setting": "5 mg/kg P.O., AII 0.1 mcg/kg IV, 60 min post dose", "value": 30, "unit": "mmHg"}, {"measurement": "Average Change", "setting": "5 mg/kg P.O., AII 0.1 mcg/kg IV, 90 min post dose", "value": 17.5, "unit": "mmHg"}, {"measurement": "Average Change", "setting": "5 mg/kg P.O., AII 0.1 mcg/kg IV, 120 min post dose", "value": 19, "unit": "mmHg"}, {"measurement": "Average Change", "setting": "5 mg/kg P.O., AII 0.1 mcg/kg IV, 180 min post dose", "value": 27.5, "unit": "mmHg"}, {"measurement": "Average Change", "setting": "5 mg/kg P.O., AII 0.1 mcg/kg IV, 240 min post dose", "value": 27, "unit": "mmHg"}, {"measurement": "Average Change", "setting": "10 mg/kg I.V., AII 0.01 mcg/kg IV (so in the source), 60 min post dose", "value": 7.5, "unit": "mmHg"}, {"measurement": "Average Change", "setting": "[2]", "value": 0, "unit": "mmHg"}, {"measurement": "Average Change", "setting": "10 mg/kg I.V., AII 0.05 mcg/kg IV, 60 min post dose", "value": 1, "unit": "mmHg"}, {"measurement": "Average Change", "setting": "[3]", "value": 5, "unit": "mmHg"}, {"measurement": "Average Change", "setting": "10 mg/kg I.V., AII 0.05 mcg/kg IV, 120 min post dose", "value": 5.5, "unit": "mmHg"}, {"measurement": "Average Change", "setting": "10 mg/kg I.V., AII 0.05 mcg/kg IV, 180 min post dose", "value": 12.5, "unit": "mmHg"}, {"measurement": "Average Change", "setting": "10 mg/kg I.V., AII 0.1 mcg/kg IV, 30 min post dose", "value": 6.5, "unit": "mmHg"}, {"measurement": "Average Change", "setting": "10 mg/kg I.V., AII 0.1 mcg/kg IV, 90 min post dose", "value": 7.5, "unit": "mmHg"}, {"measurement": "Average Change", "setting": "[4]", "value": 20, "unit": "mmHg"}, {"measurement": "Average Change", "setting": "[5]", "value": 10, "unit": "mmHg"}, {"measurement": "Change", "setting": "[1]", "value": 15, "unit": "mmHg"}, {"measurement": "Change", "setting": "[2]", "value": 0, "unit": "mmHg"}, {"measurement": "Change", "setting": "[3]", "value": 5, "unit": "mmHg"}, {"measurement": "Change", "setting": "[4]", "value": 20, "unit": "mmHg"}, {"measurement": "Change", "setting": "[5]", "value": 10, "unit": "mmHg"}]}
